Reference: patent US20260014129A1, “MITOCHONDRIAL PYRUVATE METABOLISM INHIBITORS FOR TREATING CHRONIC MYELOID LEUKEMIA” (The University Court of the University of Glasgow, priority 2022, published 2026)

Columns and labels:
[1] = system: CML CD34+ cells; assay: Patient-derived xenograft of CML CD34+ cells in NRG-W41 mice, bone marrow flow cytometry; format: in vivo, human; conditions: 4 weeks
Description: Treatment was given for 4 weeks. For treatment with asciminib (ABL001) plus MSDC-0160, twelve weeks following transplant, drug treatment was started with both asciminib (Fisher Scientific Cat #1642956) dosed at 10 mg/kg/day (5 mg/kg BID); oral gavage and MSDC-0160 (Apex Biotechnology: Cat #B3702) dosed at 30 mg/kg; oral gavage once daily. Treatment was given for 4 weeks. At the respective endpoints, bone marrow cells were collected. This was done by placing inverted cut leg bones into 0.5 mL Eppendorf tubes with holes at bottom. These in turn were placed within 1.5 mL Eppendorf tubes containing PBS, centrifuged (12,000 RCF, 20 seconds). Cells were stained (300 μl/test) with anti-mouse (APC-Cy7 BD Biosciences: Cat #557659, RRID: AB_396774, 1 μl), anti-human CD45 (FITC; BD Biosciences: Cat #555482, RRID: AB_395874, 10 μl), anti-human CD34 (APC; BD Biosciences: Cat #555824, RRID: AB_398614, 2 μl) and anti-human CD38 (PerCP; BioLegend: Cat #303520, RRID: AB_893313, 2 μl) antibodies for flow cytometry analysis as described above.

[2] = system: K562 CML cell line; assay: 13C6 glucose tracing in K562 CML cell line; format: cell-based, human; conditions: K562, several concentrations
Description: (§1) For conjugation of palmitate, a 20 mM stock was made in 100% EtOH. This was incubated on a shaking heater, 60° C. until the solution clarified. The palmitate was then added to 10% BSA (ultra-fatty acid free in EBSS, Roche, 03117057001) to give a palmitate:BSA ratio of 1:3 BSA. This solution was left for 15 min in water bath (37° C.), and then added to final concentration in complete medium. For cell line experiments, the medium was RPMI with 10% dialysed FBS and 1% penicillin/streptomycin. For tracing experiments 11 mM ^13C6 glucose was added to glucose-free RPMI.
(§2) Biological and technical replicates were processed through Autoplotter (56) and natural abundance was corrected for. Fraction of enrichment was calculated as m+2 and above. For CML samples treated with or without imatinib, multiple paired T-tests were conducted on Log 10 transformed values in Graphpad Prism. The correction for multiple comparisons was the two-stage step-up method of Benjamini, Krieger and Yekutieli with an FDR (Q) value of 10%. For volcano plots Log 10 FC vs Log 10 (q value) are plotted with q values>5% in red and >10% in blue. For normal vs CML comparisons, the process was the same with the exception that unpaired t-tests were used. For PC activity in normal vs CML, this is denoted by fraction m+3. For imatinib vs untreated we look at relative activity to PDH. IE., the m+3/m+2 ratio and conducted multiple t-tests with correction for multiple comparisons being the two-stage step-up method of Benjamini, Krieger and Yekutieli with an FDR (Q) value of 10%. To examine contribution to carbon pool we corrected contribution of each isotopologue by the number of carbons it contributes to a given metabolite, i.e., for glutamine contribution from m+5 is greater than m+3. Note that for cell line experiments standard deviation is shown.

[3] = system: CML CD34+ cells; assay: LC-MS steady state metabolite analysis of primary CML CD34+ cells; format: cell-based, human; conditions: nilotinib treatment, data not shown
Description: (§3) Cells were counted using a CASY counter with the following parameters: E-cur 7.5-22.5, N-cur 5.25-20.5. Cell number was multiplied by peak volume (size) and this number was used to calculate volume of solvent to extract in. Cells were pelleted by centrifugation (400 RCF, 10 minutes, room temperature) at which medium was removed for YSI analysis. Cells were then washed twice with ice cold PBS (Calcium and Magnesium free: Thermo Fisher Scientific) with pulse centrifugation (12,000RCF, 15 seconds, 4° C.) used between and after washes. Cells were then extracted in LC-grade ACN:MeOH:H2O solvent (−20° C., 5:3:2) by disrupting the pellet by pipetting followed by a 5 second vortex. Finally, debris was pelleted by centrifugation (16,000RCF, 10 minutes, 4° C.), supernatant transferred to LC-MS glass vials that were stored at −80° C. until analysis.
The LC system composed of a ZIC-pHILIC column (SeQuant, 150×2.1 mm, 5 μm, Merck KGaA) with a ZIC-pHILIC guard column (SeQuant, 20×2.1 mm) with an UltiMate 3000 HPLC system (Thermo Fisher Scientific). The aqueous mobile-phase solvent was 20 mM ammonium carbonate-0.1% ammonium hydroxide solution and with acetonitrile being used for organic mobile phase. A linear biphasic LC gradient was conducted from 80% organic to 80% aqueous for 15 min for a total run time of 22 min. The column temperature was maintained at 45° C. flow rate set to 200 μL/min.
The MS used in this study was a qExactive Plus Orbitrap Mass Spectrometer (Thermo Fisher Scientific) operating in polarity switching mode. The MS set up was calibrated using a custom CALMIX in both ionization modes before analysis and a tune file targeted towards the lower m/z range was used. Full scan (MS1) data was acquired in both ionization modes in profile mode at 70,000 resolution (at m/z range 75-1000), an automatic gain control (AGC) target of 1×10^6 (max fill time of 250 ms), with spray voltages +4.5 kV (capillary +50V, tube: […], skimmer: +20V) and −3.5 kV (capillary −50V, tube: […], skimmer: −20V) and s-lens RF level of 50 for the front optics. The capillary temperature 375° C., probe temperature 50′C, sheath gas flow rate 25, auxiliary gas flow rate 15a.u. 15 and sweep gas flow rate of 1a.u.
(§4) The peak areas of different metabolites were determined using Tracefinder 4.1 software (Thermo Fisher Scientific). Metabolites were identified by accurate mass of the singly charged ion and by known retention times on the pHILIC column. A commercially available standard compound mix (Merck: MSMLS-1EA) had been analysed previously on our LC-MS system to determine accurate ion masses and retention times. The 13C labelling was determined by quantifying peak areas for the accurate mass of all isotopologues of each metabolite.
Two independent experiments were performed, data normalised to first sample in each experiment, processed through Autoplotter (56), samples as experiments, and normalised data as replicates. […] For MSDC-0160 treated samples a batch correction (to non-drug control) was used prior to analysis using Metabonalyst. Volcano plots were generated, and an FDR adjusted t-test threshold 0.1 was utilised. Note both fold changes and p-values are log transformed. Top-25 scoring metabolites are included in heatmap.

[4] = system: CML CD34+ cells; assay: 13C stable isotope tracing (glucose, glutamine, palmitate) in primary CML CD34+ cells; format: cell-based, human; conditions: nilotinib treatment, data not shown
Description: as §1, §3, §4
as §2, with “10%.” for “10%. To examine contribution to carbon pool we corrected contribution of each isotopologue by the number of carbons it contributes to a given metabolite, i.e., for glutamine contribution from m+5 is greater than m+3. Note that for cell line experiments standard deviation is shown.”

[5] = system: phospho-AMPK; conditions: previously shown (ref 42); cited from earlier work
[6] = system: K562 cells; assay: Viability (Annexin V/7AAD) and CFC assays of vector control versus PC knockout K562 cells; format: cell-based, human; conditions: 72 hours; 600 nm imatinib or 100 nm omacetaxine
Description: (a) Western blot of PC and loading control (tubulin) from vector control or PC knockout K562 cells. (b) Proliferation of K562 cells from A. Shown is average and SEM from 3 independent experiments. (c) Fractional labelling from ^13C6 glucose into indicated metabolites of PC knockout cells are shown (n=3) after 24 hours. Plots were generated using Autoplotter, average and SD are plotted. Statistical analyses were conducted on the m+5 fraction. An ordinary one-way ANOVA was used with Dunnett's test used to correct for multiple comparisons. (d) Cells viability was measured using Annexin V and 7AAD. Cells were either left untreated (UT) or exposed for 72 hours to 600 nm imatinib or 100 nm omacetaxine (OMA). Shown is average and SEM from 4 independent experiments. An ordinary one-way ANOVA was used with Dunnett's test used to correct for multiple comparisons. (e) Colony Forming Cell (CFC) potential of control and […] cells. Cells were either left untreated (UT) or exposed for 72 hours to 600 nm imatinib. Shown is average and SEM from 4 independent experiments. An ordinary one-way ANOVA was used with Dunnett's test used to correct for multiple comparisons. […]

O=C(Nc1ccc(OC(F)(F)Cl)cc1)c1cnc(N2CC[C@@H](O)C2)c(-c2ccn[nH]2)c1 [ABL-001]
engraftment of human CML cells in bone marrow ([1]; ABL-001 10 mg/kg/day (5 mg/kg BID), 12 weeks engraftment): variable increase in engraftment | CD34+ cells in bone marrow ([1]; ABL-001 10 mg/kg/day): not affected

N#C/C(=C\c1cn(-c2ccccc2)c2ccccc12)C(=O)O [UK-5099]
labelled fractions in alpha-ketoglutarate (AKG) and AKG-derived glutamate [2]: reducing levels of all labelled fractions in these metabolites in a concentration-dependent manner | glucose contribution to fraction of labelling ([2]; data not shown): concentration-dependent reduction

Cc1cn(-c2cc(NC(=O)c3ccc(C)c(Nc4nccc(-c5cccnc5)n4)c3)cc(C(F)(F)F)c2)cn1 [nilotinib]
total metabolite levels [3]: reduction | 13C-glucose incorporation into TCA cycle metabolites [4]: reduction | phospho-AMPK in CD34+ CML cells [5]: increase

COC(=O)C[C@](O)(CCCC(C)(C)O)C(=O)O[C@@H]1C(OC)=C[C@]23CCCN2CCc2cc4c(cc2[C@H]13)OCO4 [omacetaxine mepesuccinate]
sensitisation of K562 to the drug by PC ablation, viability and CFC assays [6]: not observed
